# Source: ChEMBL document CHEMBL1145358, “2-Phenyl-2,3-dihydro-1H-imidazo[1,2-b]pyrazole derivatives: new potent inhibitors of fMLP-induced neutrophil chemotaxis” (Bioorg Med Chem Lett, 2007)
# Experiments:
# [1] = Inhibition of fMLP-OMe-induced chemotaxis in human neutrophils; type: functional
# fMet-Leu-Phe receptor = target: T1, fMet-Leu-Phe receptor (Homo sapiens, UniProt P21462); experiment: Displacement of [3H]-fMLP from FPR in human neutrophils
# T1 sequence (P21462 whole entry): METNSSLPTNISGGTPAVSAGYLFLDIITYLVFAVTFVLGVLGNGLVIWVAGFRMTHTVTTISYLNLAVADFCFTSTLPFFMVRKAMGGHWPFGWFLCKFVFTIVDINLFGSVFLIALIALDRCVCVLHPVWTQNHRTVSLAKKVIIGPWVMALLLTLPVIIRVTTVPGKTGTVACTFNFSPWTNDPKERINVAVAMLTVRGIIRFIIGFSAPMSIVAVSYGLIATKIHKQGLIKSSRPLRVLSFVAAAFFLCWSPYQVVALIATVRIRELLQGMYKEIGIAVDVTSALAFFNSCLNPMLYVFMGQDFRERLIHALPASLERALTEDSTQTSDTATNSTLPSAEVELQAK
compound,measurement,setting,value
O=C(c1cnn2c1NC(c1ccccc1)C2)N1CCN(Cc2ccccc2)CC1 (centres undefined),IC50,[1],0.027 µM
same,Ki,fMet-Leu-Phe receptor,> 10 µM
c1ccc(C2Cn3nccc3N2)cc1 (centres undefined),IC50,[1],0.029 µM
same,Ki,fMet-Leu-Phe receptor,> 10 µM
O=C(NC1CC1)c1cnn2c1NC(c1ccccc1)C2 (centres undefined),IC50,[1],0.00048 µM
same,Ki,fMet-Leu-Phe receptor,> 10 µM
O=C(c1cnn2c1NC(c1ccccc1)C2)N1CCCCC1 (centres undefined),IC50,[1],0.00148 µM
same,Ki,fMet-Leu-Phe receptor,> 10 µM
O=C(NCc1ccccc1)c1cnn2c1NC(c1ccccc1)C2 (centres undefined),IC50,[1],10 µM
same,Ki,fMet-Leu-Phe receptor,> 10 µM
O=C(c1cnn2c1NC(c1ccccc1)C2)N1CCOCC1 (centres undefined),IC50,[1],0.3 µM
same,Ki,fMet-Leu-Phe receptor,> 10 µM
O=C(c1cnn2c1NC(c1ccccc1)C2)N1CCCC1 (centres undefined),IC50,[1],9 µM
same,Ki,fMet-Leu-Phe receptor,> 10 µM
CC(C)(C)NC(=O)c1cnn2c1NC(c1ccccc1)C2 (centres undefined),IC50,[1],0.00752 µM
same,Ki,fMet-Leu-Phe receptor,> 10 µM
O=C(c1cnn2c1NC(c1ccccc1)C2)N1CCCCCC1 (centres undefined),IC50,[1],0.00101 µM
same,Ki,fMet-Leu-Phe receptor,> 10 µM
O=C(O)c1cnn2c1NC(c1ccccc1)C2 (centres undefined),IC50,[1],0.00116 µM
same,Ki,fMet-Leu-Phe receptor,> 10 µM
CCOC(=O)c1cnn2c1NC(c1ccccc1)C2 (centres undefined),IC50,[1],2.4 µM
same,Ki,fMet-Leu-Phe receptor,> 10 µM
NC(=O)c1cnn2c1NC(c1ccccc1)C2 (centres undefined),IC50,[1],0.00367 µM
same,Ki,fMet-Leu-Phe receptor,> 10 µM
